# Measured values as given in ChEMBL document CHEMBL1765059, “Bunodosine 391: an analgesic acylamino acid from the venom of the sea anemone Bunodosoma cangicum” (J Nat Prod, 2011).
# Activity calls are given as the source filed them.
# What was measured:
# Format in all cases: functional, organism-based
# [1] = species on record: Rattus norvegicus; assay: Antinociceptive activity against carrageenan-induced hyperalgesia in Wistar rat assessed as increase in pain threshold at 105 nm/paw, i.pl in presence of 1 ug/paw of opioid antagonist naloxone treated 30 mins before compound challenge
# [2] = system: Rattus norvegicus; assay: Antiinflammatory activity against carrageenan-induced edema in Wistar rat assessed as paw thickness at 105 nm/paw i.pl administered before 30 mins of carrageenan challenge
# [3] = system: Rattus norvegicus; assay: Antinociceptive activity in i.pl dosed Wistar rat assessed as increase in pain threshold by paw pressure test
# [4] = system: Rattus norvegicus; assay: Antinociceptive activity against carrageenan-induced hyperalgesia in Wistar rat assessed as increase in pain threshold at 105 nm/paw, i.pl administered after 150 mins of carrageenan challenge by paw pressure test
# [5] = system: Rattus norvegicus; assay: Antinociceptive activity against carrageenan-induced hyperalgesia in Wistar rat assessed as increase in pain threshold at 105 nm/paw, i.pl in presence of 5 mg/kg of nonselective serotonin antagonist methysergide treated 30 mins before compound challenge; parameters: dose 5 mg/kg
compound,measurement,setting,value
O=C(Cc1c[nH]c2cc(Br)ccc12)N[C@@H](Cc1c[nH]cn1)C(=O)O,Activity,[1],Active
same,inhibition,[2],inactive
same,Activity,[3],Dose-dependent effect
same,inhibition,[4],Active
same,Activity,[5],inactive
